Data on 1 substance can be found in patent US20190211099A1, “METHODS AND COMPOSITIONS FOR TREATING CANCER WITH SIGLEC-9 ACTIVITY MODULATORS” (KING'S COLLEGE LONDON, priority 2016, published 2019).

What all share (format): cell-based, human
The subject of one experiment is allogeneic CD8+ T cells. The experiment can be described thus: Co-culture of MUC1-ST treated macrophages with allogeneic CD8+ T cells. The following applies: macrophages educated with MUC1-ST. Here is the method:
Thereafter, the effects of MUC1-ST educated macrophages on T cell function were analyzed. Macrophages treated with MUC1-ST were co-cultured with eFluor® 670 labelled allogeneic CD8+ T cells in the presence of absence of anti-Siglec-9 antibody or isotype control. Indeed, macrophages that had been educated with MUC1-ST were decreased in their ability to stimulate the proliferation of allogeneic CD8 T cells (FIG. 11E). […] (FIG. 11F). This profile of expression and functional activity is indicative of tumor-associated macrophages (TAMs), which play a role in promoting tumor progression (Noy et al. (2014) IMMUNITY 41: 49-61; Sousa et al. (2015) BREAST CANCER RES. 17: 101; Qian et al. (2010) CELL 141: 39-45).

The subject of experiment [1] is M-CSF macrophages differentiated with LPS and IFNγ. The experiment can be described thus: Differentiation of monocytes into M(LPS+IFNγ) macrophages: CD86 and IL-12. The following applies: MUC1-ST added at day 1 of the culture. The method, then:
Both the cell phenotype staining and neutralization studies described in the Examples were performed using the following antibodies (all anti-human): Siglec-9 (Biotechne; 191240), Siglec-9 FITC (Biotechne; 191240), Siglec-3 (Biotechne; 6C5/2), Siglec-7 (Biotechne; AF1138), Siglec-3 FITC (BD; P67.6), Siglec-7 PE (Biolegend; 6-434), Siglec-10 PE (Biolegend; 5G6), Siglec-1 (abcam; 7D2), HLA-DR FITC (Beckman Coulter; IM0463U), CD16 FITC (Biolegend; B73.1), CD14 FITC (BD 555397), CD69 PE (Beckman Coulter; IM1943), CD25 FITC (ABX228FITC), CD86 PE (Beckman Coulter; IM2729U), CD40 FITC (BD 555588), CD83 PE (Beckman Coulter; IM2218), CD163 PE (Biolegend; GHI/61), CXCR1 FITC (BD Pharmongen; 551126), CD45 PC5 (Beckman Coulter; IM2653U), CD206 PE (ebioscience; 19.2), PD-L1 PE (Biolegend; 29E.2A3), CD36 (Santa Cruz; H-300), TGFbetaRII (Bio-Techne; AF-241), IL-6Rα (Tocilizumab; Roche. A generous gift from Dr. Valerie Corrigall). […] At least 1×10^4 events were evaluated using either Epics XL, (Beckman Coulter) or FACSCalibur (BD Biosciences) flow cytometers. […]
Given that IL-6 and NO are known differentiation modulators (Oosterhoff et al. (2012) ONCOIMMUNOLOGY 1: 649-658; Bogdan (2015) TREND IMMUNOL. 36: 161-178) the effects of MUC1-ST on the differentiation of monocytes into macrophages was assessed. […]

For the next experiment, the system named is THP-1 cells. The experiment can be described thus: PAI-1, M-CSF and kynurenine in supernatants of differentiated THP-1 cells. To be noted: 100 μg/mL MUC1-ST. The method, then: THP-1 cells were cultured at a concentration of 1×10^6/mL in AIM V medium. Cells were differentiated using […] phorbol 12-myristate 13-acetate (PMA) on day 0 and 100 ng/mL LPS on day 3 in the presence or absence of 100 μg/mL MUC1-ST or MUC1-T. Cell supernatants were harvested on day 5 and PAI-I concentration measured by ELISA.
Given that IDO catalyzes the rate-limiting step in the metabolism of tryptophan, the tryptophan metabolite kynurenine was detected as follows. 604, supernatant was mixed with 304, 30% trichloroacetic acid (TCA) and incubated for 30 minutes at 50° C. The supernatant was spun at 3000×g and 50 μL was harvested and mixed with 50 μL freshly prepared Ehrlich Reagent (2% p-dimethylaminobenzaldehyde in glacial acetic acid). After 10 minutes optical density (O.D.) was measured at 492 nm, and concentrations were calculated against a kynurenine standard curve. An increase in the tryptophan metabolite kynurenine was observed (FIG. 11D).
The intracellular effects of MUC1-ST binding to Siglec-9 were further explored in the monocytic cell line, THP-1. THP-1 cells were cultured for three days at a concentration of 1×10^6/mL in AIM V medium and differentiated using […] phorbol 12-myristate 13-acetate (PMA) in the presence or absence of 100 μg/mL MUC1-ST. […] THP-1 cells were further treated with DMSO or the MEK/ERK inhibitor PD98059 at 1004, and the concentration of PAI-1, M-CSF and kynurenine in cell supernatants were measured as described above. […] This increase in concentration was blocked by the MEK/ERK inhibitor PD98059 (FIG. 4I).

The next experiment deals with monocytes from PBMCs. Briefly: MUC1-ST mediated TAM formation in monocytes from PBMCs, 7 day serum-free culture. The method, then:
To further explore the role of MUC1-ST in inducing a TAM-like phenotype, monocytes from PBMCs were plated in serum-free medium, incubated with MUC1-ST or PBS, and cultured for 7 days.
Intracellular calcium flux can lead to activation of the MEK/ERK pathway (Christo et al. (2015) IMMUNOL. AND CELL BIOLOGY 93: 694-704). […] Furthermore, treatment with the MEK inhibitor PD98059 at 10 μM inhibited MUC1-ST mediated TAM formation in monocytes (FIGS. 12B, 12D-12E).

In the next experiment the test system is macrophages. Briefly: Phenotype of MUC1-ST treated macrophages (CD206, CD163, PD-L1; flow cytometry). Here is the method: Both the cell phenotype staining and neutralization studies described in the Examples were performed using the following antibodies (all anti-human): Siglec-9 (Biotechne; 191240), Siglec-9 FITC (Biotechne; 191240), Siglec-3 (Biotechne; 6C5/2), Siglec-7 (Biotechne; AF1138), Siglec-3 FITC (BD; P67.6), Siglec-7 PE (Biolegend; 6-434), Siglec-10 PE (Biolegend; 5G6), Siglec-1 (abcam; 7D2), HLA-DR FITC (Beckman Coulter; IM0463U), CD16 FITC (Biolegend; B73.1), CD14 FITC (BD 555397), CD69 PE (Beckman Coulter; IM1943), CD25 FITC (ABX228FITC), CD86 PE (Beckman Coulter; IM2729U), CD40 FITC (BD 555588), CD83 PE (Beckman Coulter; IM2218), CD163 PE (Biolegend; GHI/61), CXCR1 FITC (BD Pharmongen; 551126), CD45 PC5 (Beckman Coulter; IM2653U), CD206 PE (ebioscience; 19.2), PD-L1 PE (Biolegend; 29E.2A3), CD36 (Santa Cruz; H-300), TGFbetaRII (Bio-Techne; AF-241), IL-6Rα (Tocilizumab; Roche. A generous gift from Dr. Valerie Corrigall). Cells were suspended in PBS+0.5% BSA (2×10^5 cells/100 μL/sample) and incubated with Abs according to the manufacturer's instructions. At least 1×10^4 events were evaluated using either Epics XL, (Beckman Coulter) or FACSCalibur (BD Biosciences) flow cytometers. Analysis was performed using either WinMDI or Cellquest software.
In general terms: Flow cytometry measures light scatter and fluorescence of single cells or particles in a stream.

Turning to “NeuAcα2,3Galβ1-3GalNAc linked via a Ser/Thr of MUC1 [MUC1-ST]”, in the experiment on allogeneic CD8+ T cells, the “CD8 IFNγ secretion” value was “decreased” and the “ability of macrophages to stimulate proliferation of allogeneic CD8 T cells” value is on record as “decreased”. Further, the “levels of CD86 and IL-12” value in experiment [1] is “lower levels”. In the experiment with THP-1 cells (THP-1, PMA, three days), the “PAI-1 concentration in cell supernatants” value is given as “increased” and the “kynurenine concentration in cell supernatants” value is reported as “increased”. Moreover, the PAI-I secretion result in the experiment with THP-1 cells (THP-1 differentiated with PMA and LPS, day 5) is on record as “increased”. The “expression of ECM component collagen type I” value in the experiment with monocytes from PBMCs is given as “increased expression”. In addition, the “percentage of live macrophages in the culture” value in the experiment with monocytes from PBMCs (7 days, serum-free medium) was “increased”. The “expression of TAM markers such as CD206 and PD-L1” value with monocytes from PBMCs (flow cytometry) is “increased expression”. Also, in the experiment on macrophages, the “expression of immune checkpoint ligand PD-L1” value is “increased expression”; the “levels of mannose receptor (CD206) and scavenger receptor CD163” value is “increased levels”.
